The results in this text go back to paper PMC12064818, “A general assay platform to study protein pharmacology using ligand-dependent structural dynamics” (Nature Communications, 2025).

Molecules are shown by their SMILES.

The target in this assay is T1, FLuc-C-HiBiT (Photinus pyralis, UniProt P08659).
T1 construct: firefly luciferase with C-terminal HiBiT tag, E. coli expressed
Nature of the assay: biochemical. Particulars: enzyme activity, 10 uM ATP; read-out: IC50 or SDR50 (mM) / FLuc E.

T1 sequence (P08659 whole entry, looked up): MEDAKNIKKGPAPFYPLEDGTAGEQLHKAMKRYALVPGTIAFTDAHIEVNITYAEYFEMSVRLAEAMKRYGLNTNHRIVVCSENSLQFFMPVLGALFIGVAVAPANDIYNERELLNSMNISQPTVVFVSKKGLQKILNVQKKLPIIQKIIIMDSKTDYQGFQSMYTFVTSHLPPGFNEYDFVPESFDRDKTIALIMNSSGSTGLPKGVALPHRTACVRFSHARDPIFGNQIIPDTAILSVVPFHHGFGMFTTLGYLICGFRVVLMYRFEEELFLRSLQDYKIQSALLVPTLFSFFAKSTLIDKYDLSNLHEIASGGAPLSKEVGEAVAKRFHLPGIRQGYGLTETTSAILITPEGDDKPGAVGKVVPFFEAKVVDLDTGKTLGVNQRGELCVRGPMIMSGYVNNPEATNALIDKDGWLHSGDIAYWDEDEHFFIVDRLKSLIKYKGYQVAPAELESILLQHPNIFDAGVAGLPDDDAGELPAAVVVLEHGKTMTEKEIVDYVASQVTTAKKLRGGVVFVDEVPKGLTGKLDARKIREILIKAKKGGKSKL

For `O=C(NC1CCCC1)N1c2ccccc2CC1c1noc(C2CCOCC2)n1` (stereo not shown) [NCGC00471510-01], the IC50 was determined as 0.0111 mM.

On to `COc1cccc(CNC(=O)N2c3ccccc3CC2c2noc(C3CCOCC3)n2)c1` (stereo not shown) [NCGC00471511-01], for which the IC50 was 0.00989 mM. The figure for `Cc1ccc(-c2nnc(C3CN(C(=O)c4sc(C)nc4C)CC34CCOCC4)o2)cc1` (stereo not shown) [NCGC00471668-01] is over 0.03 mM. In the case of `O=C1CCC2(C(=O)NCCc3ccccc3)CCCC=C2N1c1ccccc1` (stereo not shown) [NCGC00472135-01], the IC50 stood at 0.0157 mM.

Consider `CCNC(=O)C1C(c2cccc(NC(=O)c3ccc(C)cc3)c2)OC(=O)N1Cc1ccc(F)cc1` (stereo not shown) [NCGC00473984-01], for which the IC50 turned out to be 0.00176 mM. As for `CCNC(=O)C1C(c2cccc(NC(=O)c3ccc(OC)cc3)c2)OC(=O)N1Cc1ccc(C)cc1` (stereo not shown) [NCGC00474207-01], the IC50 amounted to 0.00394 mM. As to `COc1cccc(-c2nc3ccc(-c4ccc5c(c4)OCO5)cc3o2)c1OC` [NCGC00474498-01], the IC50 was found to be 0.00248 mM. As for `Cc1ccc(CN2C(=O)OC(c3cccc(NC(=O)c4ccc(C)cc4)c3)C2C(=O)NCC(C)C)cc1` (stereo not shown) [NCGC00475004-01], the IC50 was 0.00881 mM. Regarding `CCCNC(=O)C1C(c2cccc(NC(=O)c3ccc(C)cc3)c2)OC(=O)N1Cc1ccc(C)cc1` (stereo not shown) [NCGC00475006-01], the IC50 came out at 0.00442 mM. With `CCc1ccc(NC(=O)N2CCCC(c3noc(COc4ccccc4)n3)C2)cc1` (stereo not shown) [NCGC00475587-01], the IC50 was determined as 0.00279 mM.

`O=C(Nc1ccc2c(c1)OCCO2)N1CCCC(c2nc(C3CCOCC3)no2)C1` (stereo not shown) [NCGC00475594-01]: the IC50 stood at 0.0111 mM. Regarding `Nc1nc2c(nc(O)n2[C@H]2C[C@H](O)[C@@H](CO)O2)c(=O)[nH]1` [NCGC00475978-01], the IC50 was over 0.03 mM.

For the molecule `COc1ccc(C2=NOC3(CCN([S+](=O)([O-])c4cccs4)C3)C2)cc1` (stereo not shown) [NCGC00476604-01], the IC50 was over 0.03 mM. In the case of `O=C1CC2(CCN(CC3CC3)CC2)Oc2ccccc21` [NCGC00476832-01], the IC50 worked out at 0.018 mM.

As for `O=C1CC2(CCN(CC3CC3)CC2)Oc2cc(Cl)ccc21` [NCGC00476866-01], the IC50 was 0.018 mM.

Regarding `O=C(Nc1ccc(F)cc1)c1cc2cccnn2n1` [NCGC00477081-01], the IC50 was 0.018 mM.

`O=C(Nc1cc(Cl)cc(Cl)c1)c1ccn2nccc2c1` [NCGC00477139-01]: the IC50 was determined as 0.018 mM. As for `C=CCNC(=O)c1cccc2c(C)nnn12` [NCGC00477166-01], the IC50 was over 0.03 mM. The value for `Cc1nnn2c(C(=O)NC3CC3)cccc12` [NCGC00477171-01] was 0.0254 mM. As to `O=C(Cc1cccc(Cl)c1)N1CCn2c(nnc2-c2ccccc2)C1` [NCGC00479548-01], the IC50 was determined as 0.0157 mM. `O=C(NCCc1ccccc1F)c1nc2sccn2c1Br` [NCGC00479849-01]: the IC50 was found to be 0.007 mM. The value for `CC(C)c1nc2c(c(-c3ccc(O)cc3)n1)CN(Cc1ccccc1)CC2` [NCGC00480075-01] was over 0.03 mM; that for `CN(C1CCc2ccccc2C1)[S+](=O)([O-])c1cccs1` (stereo not shown) [NCGC00480121-01] was over 0.03 mM; that for `CN1CC(=O)N(C2CCCC2)Cc2c1ncnc2N1CCOCC1` [NCGC00480226-01] was over 0.03 mM.

As for `O=C(NCC(F)(F)F)C1CCCN1c1nc2ncccc2o1` (stereo not shown) [NCGC00480238-01], the IC50 is over 0.03 mM. `O=C(c1ccc(F)cc1)N1CCn2c(nnc2C2CC2)C1` [NCGC00480252-01]: the IC50 is over 0.03 mM. The figure for `CC(C)c1nc2c(c(-c3ccc(O)cc3)n1)CCN(Cc1ccccn1)CC2` [NCGC00480326-01] is over 0.03 mM; for `Oc1ccc(-c2nc(C3CC3)nc3c2CCN(Cc2cccc(F)c2)CC3)cc1` [NCGC00480349-01] it is over 0.03 mM.

For the molecule `O=C(Nc1ccccc1)N1CCc2nc(C3CC3)nc(-c3ccc(Cl)cc3)c2C1` [NCGC00480419-01], the IC50 is over 0.03 mM. The value for `COCC(=O)N1CCc2nc(C)nc(-c3ccc(OC)cc3)c2C1` [NCGC00480441-01] was over 0.03 mM; that for `O=C(c1ccc(C(F)(F)F)cc1)N1CCc2nc(-c3ccccc3)nc(-c3ccc(Cl)cc3)c2C1` [NCGC00480461-01] was over 0.03 mM.
